Results on ten molecules are retold here after patent US10233156B2, “9-membered fused ring derivative” (Shionogi & Co., Ltd., priority 2015, dated 2019).

One assay has as its target recombinant human ACC1 (Homo sapiens (Human), UniProt Q13085). The assay can be described thus: Measurement of inhibitory activity on human ACC1 (MALDI-TOF MS, conversion of acetyl CoA to malonyl CoA). It counts as biochemical. The settings on record: recombinant human ACC1, room temperature, 1 to 3 hours. From the text: After a cDNA encoding human ACC1 (1 amino acid residue to 2346 amino acid residues from the N-terminus) was cloned from human liver cDNA library (BioChain), human ACC1 gene containing myc-tag and His-tag sequence at 3′ terminus was inserted into pIEXBAC3 (Novagen). Recombinant baculovirus was generated using FlashBACGOLD system (Oxford Expression Technologies) according to the manufacturer's protocol. To express human ACC1, Sf-9 cells were infected with recombinant baculovirus. After infected cells were disrupted, the filtrated lysate was subjected to Ni-affinity chromatography and anion-exchange chromatography. The fractions containing human ACC1 protein were pooled as recombinant human ACC1 solution.
(§1) Recombinant human ACC1 and recombinant human ACC2, which were prepared by the method mentioned above, were preincubated with assay buffer solution (50 mM HEPES-KOH (pH 7.4), 10 mM magnesium chloride, 6-10 mM potassium citrate, 4 mM reduced form of glutathione, 1.5 mg/ml bovine serum albumin) for one hour. Then, 0.2 μL of each this invention compound solution (in DMSO) were dispensed to 384-well microplate, 5 μL of the preincubated enzyme solution and 5 μL of substrate solution (50 mM HEPES-KOH (pH 7.4), 1 mM ATP, 0.8 mM acetyl CoA and 25-50 mM potassium bicarbonate) were added to microplate. After centrifugation and shaking, the reaction mixtures were incubated in a humidified box at room temperature for 1 to 3 hours. After the incubation, the enzyme reactions were stopped by the addition of EDTA. Then, after the samples were cocrystallized with CHCA (α-cyano-4-hydroxy cinnamic acid) matrices on MALDI target plate, by using the matrix assist laser […] time-of-flight mass spectrometer (MALDI-TOF MS), samples were measured in reflector negative mode. Deprotonated ions of acetyl CoA (AcCoA) of substrate and malonyl CoA (MalCoA) of the reaction product were detected, then, the conversion rates of acetyl CoA to malonyl CoA was calculated by the intensity of [MalCoA-H]−/(Intensity of [MalCoA-H].+Intensity of [AcCoA-H]—) using each signal strength. […] In addition, potassium citrate concentrations in assay buffer solution, potassium hydrogen carbonate concentrations in substrate solution and incubation time were adjusted by each lot of enzyme.

The next assay addresses recombinant human ACC2 (Homo sapiens (Human), UniProt O00763). The assay can be described thus: Measurement of inhibitory activity on human ACC2 (MALDI-TOF MS, conversion of acetyl CoA to malonyl CoA). The settings on record: recombinant human ACC2, room temperature, 1 to 3 hours. The assay is classed as biochemical.
Source text: After a cDNA encoding human ACC2 (27 amino acid residue to 2458 amino acid residues from the N-terminus) was cloned from human kidney cDNA library (Clontech), human ACC2 gene containing His-tag sequence at 5′ terminus was inserted into pFastBac1 (Invitrogen). Recombinant baculovirus was generated using Bac-to-Bac baculovirus expression system (Invitrogen) according to the manufacturer's protocol. To express human ACC2, Sf-9 cells were infected with recombinant baculovirus. After infected cells were disrupted, the filtrated lysate was subjected to Ni-affinity chromatography and anion-exchange chromatography. The fractions containing human ACC2 protein were pooled as recombinant human ACC2 solution.
as §1

Some results are limits rather than exact numbers.

Broadly, the IC50 is the concentration that inhibits the measured activity by half.

Sequence of recombinant human ACC2 (O00763 27-2458): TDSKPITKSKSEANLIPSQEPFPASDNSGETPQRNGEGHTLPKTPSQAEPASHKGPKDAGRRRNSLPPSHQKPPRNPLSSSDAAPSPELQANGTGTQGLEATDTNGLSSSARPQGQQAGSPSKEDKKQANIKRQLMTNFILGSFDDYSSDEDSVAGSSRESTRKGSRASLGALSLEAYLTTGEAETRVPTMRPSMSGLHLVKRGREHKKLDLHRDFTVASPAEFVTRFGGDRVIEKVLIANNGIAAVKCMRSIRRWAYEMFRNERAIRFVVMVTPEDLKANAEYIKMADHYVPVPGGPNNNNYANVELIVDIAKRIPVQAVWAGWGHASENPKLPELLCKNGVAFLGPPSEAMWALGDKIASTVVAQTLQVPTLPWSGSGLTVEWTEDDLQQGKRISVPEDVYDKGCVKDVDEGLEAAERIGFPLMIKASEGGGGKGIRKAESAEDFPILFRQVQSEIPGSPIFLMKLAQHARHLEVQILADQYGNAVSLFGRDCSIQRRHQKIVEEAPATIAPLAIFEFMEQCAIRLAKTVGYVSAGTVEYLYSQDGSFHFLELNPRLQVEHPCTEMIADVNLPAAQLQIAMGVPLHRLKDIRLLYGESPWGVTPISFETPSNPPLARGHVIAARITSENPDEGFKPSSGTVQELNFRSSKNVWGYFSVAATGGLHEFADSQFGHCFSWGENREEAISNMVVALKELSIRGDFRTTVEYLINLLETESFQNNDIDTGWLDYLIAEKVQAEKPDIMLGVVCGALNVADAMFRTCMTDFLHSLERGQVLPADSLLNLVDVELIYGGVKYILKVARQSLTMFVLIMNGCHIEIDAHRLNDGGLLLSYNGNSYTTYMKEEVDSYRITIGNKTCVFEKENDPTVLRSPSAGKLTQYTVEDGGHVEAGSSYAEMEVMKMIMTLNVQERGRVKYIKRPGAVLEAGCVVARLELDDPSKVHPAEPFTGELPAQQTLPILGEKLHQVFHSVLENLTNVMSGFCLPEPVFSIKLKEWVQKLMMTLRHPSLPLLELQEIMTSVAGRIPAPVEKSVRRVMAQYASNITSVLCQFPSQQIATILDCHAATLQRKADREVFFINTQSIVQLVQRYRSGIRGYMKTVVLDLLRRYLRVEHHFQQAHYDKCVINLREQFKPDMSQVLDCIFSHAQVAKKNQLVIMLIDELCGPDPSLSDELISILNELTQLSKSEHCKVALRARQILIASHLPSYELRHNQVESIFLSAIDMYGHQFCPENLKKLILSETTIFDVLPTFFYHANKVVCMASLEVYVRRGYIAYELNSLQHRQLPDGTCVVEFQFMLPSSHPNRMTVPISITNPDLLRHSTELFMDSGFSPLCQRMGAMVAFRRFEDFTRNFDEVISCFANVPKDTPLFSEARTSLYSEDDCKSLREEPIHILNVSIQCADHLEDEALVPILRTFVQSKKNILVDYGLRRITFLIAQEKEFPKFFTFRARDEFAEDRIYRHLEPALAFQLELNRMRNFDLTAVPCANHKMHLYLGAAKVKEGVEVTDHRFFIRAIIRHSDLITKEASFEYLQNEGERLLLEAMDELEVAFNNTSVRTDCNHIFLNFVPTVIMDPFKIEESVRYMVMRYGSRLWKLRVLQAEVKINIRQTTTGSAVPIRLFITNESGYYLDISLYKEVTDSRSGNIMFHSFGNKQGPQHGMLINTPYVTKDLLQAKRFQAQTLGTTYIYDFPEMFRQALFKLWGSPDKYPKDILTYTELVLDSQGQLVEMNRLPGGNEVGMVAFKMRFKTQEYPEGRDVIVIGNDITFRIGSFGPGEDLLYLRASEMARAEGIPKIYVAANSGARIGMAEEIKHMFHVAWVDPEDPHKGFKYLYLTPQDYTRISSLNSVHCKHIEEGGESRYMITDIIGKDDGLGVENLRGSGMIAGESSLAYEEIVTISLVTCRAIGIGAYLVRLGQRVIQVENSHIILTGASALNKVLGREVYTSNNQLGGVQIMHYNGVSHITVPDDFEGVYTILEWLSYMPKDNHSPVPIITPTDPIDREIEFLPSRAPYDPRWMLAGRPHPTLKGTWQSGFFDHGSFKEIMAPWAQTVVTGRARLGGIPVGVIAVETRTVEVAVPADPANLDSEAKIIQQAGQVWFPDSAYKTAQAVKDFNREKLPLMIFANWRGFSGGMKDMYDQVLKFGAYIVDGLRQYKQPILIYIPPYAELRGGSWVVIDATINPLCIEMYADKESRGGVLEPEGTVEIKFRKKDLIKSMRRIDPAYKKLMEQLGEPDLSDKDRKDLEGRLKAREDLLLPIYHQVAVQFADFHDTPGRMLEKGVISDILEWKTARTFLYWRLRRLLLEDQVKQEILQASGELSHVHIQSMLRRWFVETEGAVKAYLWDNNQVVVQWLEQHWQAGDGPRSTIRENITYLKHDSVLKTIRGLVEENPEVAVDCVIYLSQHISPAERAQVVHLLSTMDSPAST

For the molecule `CC(=O)N[C@@H](C)CO[C@H]1CC[C@H](Oc2nc3ncc(OC4CC4)cc3n2C)CC1` [Example I-199], the IC50 on recombinant human ACC1 is more than 100000 nM; on recombinant human ACC2, 730 nM.

On to `C[C@@H](CO[C@H]1CC[C@H](Oc2nc3ncc(OC4CC4)cc3n2C)CC1)NC(N)=O` [Example I-204], for which the IC50 on recombinant human ACC1 was more than 100000 nM.

With `CC(=O)N[C@@H](C)CC(F)(F)[C@@H]1CC[C@@H](Oc2nc3c(F)cc(OCC(F)F)c(F)c3n2C)CO1` [Example I-230], the concentration for half-maximal inhibition (IC50) is more than 100000 nM on recombinant human ACC1 and 89 nM on recombinant human ACC2.

Consider `Cn1c(O[C@H]2CC[C@H](OC[C@H](CF)NC(=O)C3CC3)CC2)nc2c(F)cc(OCC(F)F)c(F)c21` [Example I-233], for which the IC50 at recombinant human ACC1 was more than 100000 nM; on recombinant human ACC2, 31 nM.

Regarding `C[C@@H](CO[C@H]1CC[C@H](Oc2nc3c(F)cc(OCC(F)F)c(F)c3n2C)CC1)NS(N)(=O)=O` [Example I-242], the results for the IC50 at recombinant human ACC1 and on recombinant human ACC2 were more than 100000 nM and 120 nM, respectively.

For the molecule `Cn1c(O[C@H]2CC[C@H](OC[C@H](CF)NC(=O)CO)CC2)nc2c(F)cc(OCC(F)F)c(F)c21` [Example I-245], the values for the IC50 at recombinant human ACC1 and at recombinant human ACC2 were more than 100000 nM and 53 nM, respectively.

As for `C[C@@H](CO[C@H]1CC[C@H](Oc2nc3c(F)cc(OCC(F)F)c(Cl)c3n2C)CC1)NS(N)(=O)=O` [Example I-248], the values for the IC50 on recombinant human ACC1 and at recombinant human ACC2 were more than 100000 nM and 160 nM, respectively.

On to `CC(=O)N[C@@H](C)/C=C(\F)[C@@H]1CC[C@@H](Oc2nc3c(F)cc(OCC(F)F)c(F)c3n2C)CO1` [Example I-250], for which the IC50 at recombinant human ACC2 was 21 nM.

On to `CC(=O)N[C@@H](C)CO[C@H]1CC[C@@H](Cc2nc3c(F)cc(OCC(F)F)c(F)c3n2C)CC1` [Example I-251], for which the concentration for half-maximal inhibition (IC50) on recombinant human ACC2 was 100 nM.

In the case of `CC(=O)N[C@@H](C)CO[C@H]1CC[C@H](Cc2nc3c(F)cc(OCC(F)F)c(F)c3n2C)CC1` [Example I-252], the IC50 on recombinant human ACC1 was more than 100000 nM.
